Test results from patent US20110311445A1, “DIAGNOSIS AND TREATMENT OF MYELOID AND LYMPHOID CELL CANCERS” (MORPHOTEK, INC., priority 2003, published 2011).

Assays:
Daudi cell line = assay: Cell proliferation / cytotoxicity, CCK-8, chlorotoxin (TM-601) with or without doxorubicin; type: cell-based; settings: in combination with doxorubicin; FIG. 4
Description: (§1) A tissue culture method was optimized to test the effects of chlorotoxin (TM-601) in the presence or absence of doxorubicin on Raji (FIG. 3) and Daudi (FIG. 4) cell lines. Cells were plated on 96-well microtiter tissue culture plates at a density of approximately 1000-2000 cells per well, depending on the specific cell line. Cells were allowed to adhere twenty-four hours in a 37° C., humidified cell culture incubator supplied with five percent carbon dioxide. In order to achieve a dose-response curve for each drug in each cell line, cells were treated with decreasing concentrations doxorubicin for two to five days. Following treatment, the cytotoxic effect of doxorubicin was quantified using the Cell Counting Kit-8 (CCK-8) (Dojindo Inc.) according to the manufacturer's instructions. In brief, following the treatment period with doxorubicin, cells were incubated with CCK-8 reagent and incubated at 37° C. for one to four hours, depending on the specific cell type. After incubation, plates were read on a microplate reader at a wavelength of 490 nm.

Raji cell line = assay: as above; type: cell-based; settings: in combination with doxorubicin; FIG. 3
Description: as §1

[1] = test system: myeloid and lymphoid cancer cells; assay: Binding of chlorotoxin and binding-domain peptides to lymphoid cancer cells (FACS, streptavidin-fluorescein); settings: general statement; FACS on Raji, Daudi, Molt-4 cells (FIG. 1, 2)
Description: Raji (Epstein et al. (1966) J. Natl. Cancer Inst. 37, 547-559) and Daudi (Klein et al. (1968) Cancer Res. 28 1300-1310) cells were used either unfixed or fixed with one percent glutaraldehyde. The Raji cell line (ATCC CCL-86) is a B lymphocyte cell line derived from a Burkitt's lymphoma of a person. The Daudi cell line (ATCC CCL-213) is a B lymphoblast cell line derived from person. Cells were incubated with chlorotoxin or the designated binding domain peptide (SEQ ID NO: 8 or 10), washed then incubated with streptavidin-fluorescein (strp-FL). After another wash, cells were analyzed using a FACS analyzer and the percent of positive staining cells determined (FIG. 1). Controls included untreated cells, cells incubated with streptavidin-fluorescein alone and cells incubated with negative peptide.
Molt-4 cells (Minowada et al. (1972) J. Natl. Cancer Inst. 49, 891-895) were used either unfixed or fixed with one percent glutaraldehyde. The Molt-4 cell line is a T lymphoblast cell line derived from a patient in relapse. Cells were incubated with chlorotoxin or the designated binding domain peptide (SEQ ID NO: 8 or 10), washed then incubated with streptavidin-fluorescein (strp-FL). After another wash, cells were analyzed using a FACS analyzer and the percent of positive staining cells determined (FIG. 2). […]

## chlorotoxin
Daudi cell line
  effect on Daudi cell proliferation: close-dependent synergistic effects
Raji cell line
  effect on Raji cell proliferation: close-dependent synergistic effects
[1]
  binding to myeloid and lymphoid cancer cells: specifically and selectively bind
